The text below walks through data of ChEMBL document CHEMBL1201862, “PubChem BioAssay data set” (2004).

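All cell lines were grown in 96-well plates and treated with compound for 48 hours. GI50 marks 50% less growth.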 Calls of active or inactive are those of the source. Rule as the data show it: active = GI50 up to about 1.1 µM and inactive = higher.

Among the test systems are OVCAR-8; HT-29; SK-MEL-5; SF-539; A498; TK-10; MOLT-4; UACC-62; ACHN; HCT-15; CAKI-1; SNB-75; CCRF-CEM; SK-MEL-28; M14; RPMI-8226; NCI-H460; UACC-257; SR.
Experiment in all cases: growth of human tumour cells (NCI), 48 h

Regarding `C[n+]1[se]c2ccccc2c1Cl`, the GI50 is 45 µM (inactive) with OVCAR-8; 28.4 µM (inactive) with HT-29; 16.6 µM (inactive) in the test on SK-MEL-5; 19.3 µM (inactive) in the test with SF-539; > 59.4 µM (inactive) in the test with A498; > 43.4 µM (inactive) with TK-10. For the same compound, the GI50 is 13.5 µM (inactive) in the test on MOLT-4; 17.7 µM (inactive) in the test on UACC-62; > 48.8 µM (inactive) with ACHN; 24.7 µM with HCT-15; > 41.8 µM (inactive) in the test with CAKI-1; 17.6 µM (inactive) in the test on SNB-75. Besides, the GI50 is 8.67 µM (inactive) in the test on CCRF-CEM; 23.4 µM (inactive) with SK-MEL-28; 13.7 µM (inactive) in the test on M14; 33.1 µM (inactive) with RPMI-8226; 35.3 µM (inactive) in the test with NCI-H460; 17.9 µM (inactive) with UACC-257.

On to `O=C1C2C3C=C4c5ccccc5N(c5ccccc5)C4(C2C(=O)N1Cc1ccccc1)C1C(=O)N(Cc2ccccc2)C(=O)C31` (configuration not stated), for which the GI50 in the test on OVCAR-8 is 39.4 µM (inactive); in the test with HT-29, > 100 µM (inactive); in the test with SF-539, > 100 µM (inactive); in the test with SR it was > 100 µM (inactive); in the test with A498, > 100 µM (inactive); in the test on TK-10 it was > 100 µM (inactive). For the same compound, the GI50 is > 100 µM (inactive) in the test with MOLT-4; > 100 µM (inactive) with ACHN; > 100 µM with HCT-15; > 10 µM (inactive) in the test with CAKI-1; 16.1 µM (inactive) with SNB-75; > 100 µM (inactive) in the test on CCRF-CEM. The GI50 in the test on SK-MEL-28 was > 100 µM (inactive); in the test with M14 it was > 10 µM (inactive); with NCI-H460, > 100 µM (inactive); in the test with UACC-257, > 100 µM (inactive).

On to `C=CC1(c2ccccc2Cl)N/C(=C/OCC)CO1` (configuration not stated), for which the GI50 with OVCAR-8, with HT-29, in the test on SK-MEL-5, in the test on SF-539, with SR and in the test on A498 was > 100 µM (inactive) each time. Also, the GI50 was > 100 µM (inactive) with TK-10; > 100 µM (inactive) in the test with MOLT-4; > 100 µM (inactive) with UACC-62; > 100 µM (inactive) in the test on ACHN; > 100 µM in the test on HCT-15; > 100 µM (inactive) in the test on CAKI-1. The GI50 is 36.6 µM (inactive) in the test with SNB-75; > 100 µM (inactive) in the test on CCRF-CEM; > 100 µM (inactive) in the test with SK-MEL-28; > 100 µM (inactive) in the test on M14; 24.7 µM (inactive) in the test on RPMI-8226; > 100 µM (inactive) with NCI-H460. Moreover, the GI50 in the test on UACC-257 was > 100 µM (inactive).

`O=C(OCc1ccccc1)OOC(=O)OCc1ccccc1`: the GI50 with HT-29, in the test on SK-MEL-5, with SF-539, in the test with SR, in the test with A498 and with MOLT-4 was > 100 µM (inactive) in each case. Besides, the GI50 in the test with UACC-62 is > 100 µM (inactive); in the test with ACHN it was > 100 µM (inactive); in the test with HCT-15, > 100 µM; in the test with CAKI-1 it was > 100 µM (inactive); in the test on SNB-75 it was 99.1 µM (inactive); in the test on CCRF-CEM, > 100 µM (inactive). In addition, the GI50 in the test on SK-MEL-28, in the test on M14, in the test with RPMI-8226, with NCI-H460 and in the test with UACC-257 was > 100 µM (inactive) in each case.

With `COc1c2c(cc3c(CCc4ccccc4)cc(=O)oc13)CCC(C)(C)O2`, the GI50 with OVCAR-8, in the test with HT-29, in the test on SK-MEL-5, with SR, with TK-10 and in the test with MOLT-4 was > 100 µM (inactive) throughout. Further, the GI50 was > 100 µM (inactive) in the test with UACC-62; > 100 µM (inactive) with ACHN; > 100 µM in the test with HCT-15; > 100 µM (inactive) in the test with SNB-75; > 100 µM (inactive) with CCRF-CEM; > 100 µM (inactive) in the test on SK-MEL-28. Moreover, the GI50 in the test with M14, in the test on RPMI-8226, in the test on NCI-H460 and in the test on UACC-257 was > 100 µM (inactive) each time.

On to `COC(=O)C(/C(=N/NC(N)=S)C(=O)Nc1ccccc1[N+](=O)[O-])c1cnc2ccccc2n1` (configuration not stated), for which the GI50 with OVCAR-8, in the test on HT-29, with SK-MEL-5, with SF-539, in the test on SR and in the test on A498 was > 100 µM (inactive) in each case. The GI50 is > 100 µM (inactive) in the test with TK-10; 83 µM (inactive) in the test on MOLT-4; > 100 µM (inactive) with UACC-62; > 100 µM (inactive) in the test with ACHN; > 100 µM with HCT-15; > 100 µM (inactive) with CAKI-1. Also, the GI50 with SNB-75, in the test on CCRF-CEM, with SK-MEL-28, in the test with M14, with RPMI-8226 and in the test with NCI-H460 was > 100 µM (inactive) throughout. Moreover, in the test on UACC-257, the GI50 is > 100 µM (inactive).

As to `CCOC(=O)C(=O)NC12CC3CC(CC(C3)C1)C2`, the GI50 with OVCAR-8, with HT-29, in the test on SK-MEL-5, with SF-539, in the test with A498 and with TK-10 was > 100 µM (inactive) each time. The GI50 is > 100 µM (inactive) in the test with UACC-62; > 100 µM (inactive) in the test on ACHN; > 100 µM with HCT-15; > 100 µM (inactive) in the test on CAKI-1; > 100 µM (inactive) in the test with SNB-75; > 100 µM (inactive) with CCRF-CEM. In addition, the GI50 in the test with SK-MEL-28, in the test on M14, with RPMI-8226, with NCI-H460 and with UACC-257 was > 100 µM (inactive) each time.

For `O=C(CC/C=C(/CS(=O)(=O)c1ccccc1)S(=O)(=O)c1ccccc1)c1ccccc1`, the GI50 in the test with OVCAR-8 is > 100 µM (inactive); in the test with HT-29, 75 µM (inactive); in the test on SK-MEL-5 it was > 100 µM (inactive); in the test with SF-539 it was > 100 µM (inactive); with SR it was 56.8 µM (inactive); in the test with A498 it was > 100 µM (inactive). The GI50 was > 100 µM (inactive) in the test on TK-10; > 100 µM (inactive) in the test on MOLT-4; 22.2 µM (inactive) with UACC-62; > 100 µM (inactive) with ACHN; > 100 µM in the test on HCT-15; 25.6 µM (inactive) in the test on SNB-75. Also, the GI50 in the test with CCRF-CEM is 12.1 µM (inactive); in the test on SK-MEL-28 it was > 100 µM (inactive); in the test on M14, > 100 µM (inactive); with RPMI-8226, > 100 µM (inactive); in the test on NCI-H460, > 100 µM (inactive); with UACC-257 it was > 100 µM (inactive).

For the compound `COC(=O)C(Cc1ccc(N(C)C)cc1)(NC(=O)c1ccccc1)P(=O)(OC)OC` (configuration not stated), the GI50 with OVCAR-8, in the test with HT-29, in the test with SK-MEL-5, with SF-539, in the test with SR and with A498 was > 100 µM (inactive) in each case. Also, the GI50 is > 100 µM (inactive) with TK-10; > 100 µM (inactive) in the test with MOLT-4; > 100 µM (inactive) in the test with UACC-62; > 100 µM (inactive) in the test on ACHN; > 100 µM with HCT-15; > 100 µM (inactive) in the test on CAKI-1. The GI50 with SNB-75, with CCRF-CEM, in the test on SK-MEL-28, with M14, in the test on RPMI-8226 and in the test with NCI-H460 was > 100 µM (inactive) throughout. The GI50 in the test on UACC-257 was > 100 µM (inactive).

In the case of `C[Si](C)(C)/C(I)=C/CO`, the GI50 was 29.7 µM (inactive) in the test with OVCAR-8; 20.5 µM (inactive) in the test with HT-29; 19 µM (inactive) with SK-MEL-5; 20 µM (inactive) in the test with SF-539; 38.6 µM (inactive) in the test on A498; 33.3 µM (inactive) with TK-10. Moreover, the GI50 with MOLT-4 was 17 µM (inactive); in the test on UACC-62, 20.4 µM (inactive); in the test on ACHN, 17 µM (inactive); with HCT-15, 24.8 µM; in the test with SNB-75 it was 53.6 µM (inactive); with CCRF-CEM, 22 µM (inactive). Further, the GI50 in the test with SK-MEL-28 is 27.9 µM (inactive); in the test on M14, 35.2 µM (inactive); in the test with RPMI-8226, 17.4 µM (inactive); with NCI-H460, 19.7 µM (inactive); in the test with UACC-257, 15.5 µM (inactive).

As to `O=S1(=O)CC#CC[C@@H](CO)[C@@H](CO)CC#CC1`, the GI50 was > 100 µM (inactive) with OVCAR-8; > 100 µM (inactive) in the test with HT-29; > 100 µM (inactive) with SK-MEL-5; > 100 µM (inactive) with SF-539; 38.7 µM (inactive) with SR; > 100 µM (inactive) in the test on TK-10. In addition, the GI50 is 42.5 µM (inactive) with MOLT-4; > 100 µM (inactive) in the test on UACC-62; > 100 µM (inactive) in the test on ACHN; > 100 µM in the test with HCT-15; 82 µM (inactive) with SNB-75; 22.5 µM (inactive) in the test with CCRF-CEM. Also, the GI50 in the test with SK-MEL-28 was 72.3 µM (inactive); in the test on M14, 40.1 µM (inactive); in the test on NCI-H460, > 100 µM (inactive); in the test with UACC-257, 91.6 µM (inactive).
